Six molecules from ChEMBL document CHEMBL1201862, “PubChem BioAssay data set” (2004) can be followed below.

What all share (assay): NCI tumour cell line growth inhibition, 48 h
In test [1] the test system is COLO 205.
Test [2] deals with RPMI-8226.
The test system of test [3] is A498.
Test [4] deals with T47D.
In test [5] the test system is Hs-578T.
For test [6], the system named is MOLT-4.
Test [7] has as its system HCC 2998.
Test [8] concerns PC-3.
Test [9] deals with SK-MEL-28.
Test [10] deals with NCI-H460.
In test [11] the test system is OVCAR-4.
The subject of test [12] is DU-145.
For test [13], the system named is RXF 393.
The subject of test [14] is UO-31.
Test [15] concerns SF-539.
The subject of test [16] is OVCAR-3.
For test [17], the system named is A549.
Test [18] relates to SF-268.
The subject of test [19] is OVCAR-8.
The subject of test [20] is ACHN.

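How tested: cells in 96-well plates exposed to compound for 48 hours at five concentrations. At the GI50, growth is halved.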 Calls of active or inactive are those of the source. Rule as the data show it: active = GI50 up to about 1.1 µM and inactive = higher.

For `CC1=CC2C(O1)C1C(=O)C=CC(=O)C1=CC2[N+](=O)[O-]` (stereo not given), the GI50 is 5.73 µM (inactive) in [1]; 9.33 µM (inactive) in test [2]; 22.9 µM (inactive) in test [3]; 3.85 µM (inactive) in test [4]; 18.1 µM (inactive) in test [5]; 3.48 µM (inactive) in test [6]. The GI50 was > 43.7 µM (inactive) in test [7]; 19.9 µM (inactive) in test [8]; 27.4 µM (inactive) in test [9]; 18.6 µM (inactive) in [10]; 17.3 µM (inactive) in test [11]; 25.4 µM (inactive) in [12]. Besides, the GI50 in test [13] was 14.8 µM (inactive); in test [14], 5.22 µM (inactive); in test [15] it was 33.5 µM (inactive); in test [16], 16 µM (inactive); in test [17], 19.4 µM (inactive); in test [18], 15 µM (inactive). The GI50 is 22.5 µM (inactive) in test [19] and 5.3 µM (inactive) in test [20].

Regarding `CN(C)CCNc1nc2ccccc2c2c1C(=O)c1ccccc1-2`, the GI50 in test [1] is 0.303 µM (active); in test [2], 0.123 µM (active); in test [3], 0.163 µM (active); in test [4] it was 0.281 µM (active); in test [5], 2.1 µM (inactive); in [6] it was 0.01 µM (active). For the same molecule, the GI50 in test [7] was 0.134 µM (active); in [8], 0.27 µM (active); in test [9] it was 0.471 µM (active); in test [10], < 0.0194 µM (active); in test [11] it was 0.338 µM (active); in test [12] it was 0.149 µM (active). The GI50 in test [13] was 0.18 µM (active); in [14], 0.15 µM (active); in [15] it was 0.382 µM (active); in [16], 0.556 µM (active); in [17] it was 0.0581 µM (active); in [18], 0.279 µM (active). In addition, the GI50 in test [19] was 0.195 µM (active); in test [20], 0.0834 µM (active).

As for `CSC(=O)/C=C1\SS/C(=C\C(=O)SC)S1`, the GI50 in test [1] was 6.31 µM (inactive); in test [2], 1.55 µM (inactive); in test [3], 7.89 µM (inactive); in test [4], 5.83 µM (inactive); in test [5] it was 3.05 µM (inactive); in test [6], 1.77 µM (inactive). Besides, the GI50 in test [7] was 1.8 µM (inactive); in [8], 3.09 µM (inactive); in test [9], 2.42 µM (inactive); in test [10], 2.26 µM (inactive); in test [11] it was 3.75 µM (inactive); in test [12], 10.5 µM (inactive). Moreover, the GI50 in [13] was 1.24 µM (inactive); in test [14] it was 2.43 µM (inactive); in test [15], 2.72 µM (inactive); in [16], 2.99 µM (inactive); in test [17], 6.24 µM (inactive); in test [18], 2.49 µM (inactive). The values for the GI50 in test [19] and in [20] were 3.44 µM (inactive) and 2.99 µM (inactive), respectively.

Take `NC1CC(=O)c2c(I)sc(I)c21` (stereo not given): the GI50 in test [1] is 14.9 µM (inactive); in test [2], 4.41 µM (inactive); in test [3], 20 µM (inactive); in [4], 46.2 µM (inactive); in [5], 30.3 µM (inactive); in test [6] it was 12.1 µM (inactive). The GI50 was 22 µM (inactive) in [7]; 18.7 µM (inactive) in test [8]; 21.4 µM (inactive) in [9]; 17.7 µM (inactive) in [10]; 20.1 µM (inactive) in [11]; 24 µM (inactive) in test [12]. For the same molecule, the GI50 in [13] was 21.4 µM (inactive); in test [14], 19.2 µM (inactive); in test [15] it was 8.89 µM (inactive); in test [16], 20 µM (inactive); in test [17], 29.8 µM (inactive); in [18] it was 21 µM (inactive). Moreover, the GI50 was 20.6 µM (inactive) in test [19] and 20.9 µM (inactive) in test [20].

For `Clc1ccc(-c2ccc(-c3nnc(CCc4nnc(-c5ccc(-c6ccc(Cl)cc6)o5)o4)o3)o2)cc1`, the GI50 is > 100 µM (inactive) in test [1]; 34 µM (inactive) in [2]; 30.5 µM (inactive) in [3]; 75.7 µM (inactive) in test [4]; 14.8 µM (inactive) in test [5]; 3.81 µM (inactive) in test [6]. The GI50 in [7], in [8], in test [9], in test [10], in test [11] and in test [12] was > 100 µM (inactive) throughout. Moreover, the GI50 in test [13] is 25.8 µM (inactive); in test [14], > 100 µM (inactive); in test [15] it was 27.3 µM (inactive); in test [16], > 100 µM (inactive); in test [17], > 100 µM (inactive); in [18], 28.6 µM (inactive). Also, the GI50 in test [19] is > 91 µM (inactive); in test [20], > 55.6 µM (inactive).

Turning to `Clc1ccc(C2C3COc4ccccc4C3=NN2c2ccccc2)cc1` (stereo not given), the GI50 is > 100 µM (inactive) in [1]; 2.1 µM (inactive) in [2]; > 100 µM (inactive) in test [3]; > 69.7 µM (inactive) in [4]; 54.2 µM (inactive) in [5]; 8.73 µM (inactive) in [6]. The GI50 was > 100 µM (inactive) in [7]; > 67.1 µM (inactive) in [8]; 99.5 µM (inactive) in test [9]; > 100 µM (inactive) in test [10]; > 100 µM (inactive) in test [11]; > 80.5 µM (inactive) in test [12]. Also, the GI50 in test [13] was 95.5 µM (inactive); in test [14], > 100 µM (inactive); in test [15], 34.4 µM (inactive); in test [16] it was > 57.3 µM (inactive); in test [17], > 100 µM (inactive); in test [18], 44.7 µM (inactive). For the same molecule, the GI50 in test [19] was > 69.5 µM (inactive); in [20], > 100 µM (inactive).
